O=C(Cn1cnnn1)N[C@@H]1C(=O)N2C(C(=O)O)=C(CSc3nncs3)CS[C@H]12
solubility (mole fraction)
Conditions | 278.15 K | 283.15 K | 288.15 K | 293.15 K | 298.15 K | 303.15 K | 308.15 K | 313.15 K
in acetone | 0.00153 | 0.00156 | 0.00161 | 0.00165 | 0.0017 | 0.00184 | 0.00193 | 0.0023
in acetonitrile | 0.000124 | 0.000137 | 0.000159 | 0.000164 | 0.000184 | 0.000219 | 0.000253 | 0.000284
in ethanol | 4.85e-05 | 5.92e-05 | 6.49e-05 | 7.26e-05 | 9.45e-05 | 0.000104 | 0.000122 | 0.000152
in ethyl acetate | 0.000188 | 0.000217 | 0.000242 | 0.0003 | 0.000342 | 0.000371 | 0.000433 | 0.00053
in isopropanol | 6.43e-05 | 6.82e-05 | 7.37e-05 | 8.59e-05 | 0.000104 | 0.000114 | 0.000134 | 0.000152
in methanol | 1.2e-05 | 1.5e-05 | 1.92e-05 | 2.43e-05 | 3.26e-05 | 4.34e-05 | 5.48e-05 | 6.84e-05
in water | 1.04e-05 | 1.27e-05 | 1.64e-05 | 1.92e-05 | 2.51e-05 | 3.24e-05 | 4.27e-05 | 5.32e-05
